From patent publication US4243408A, “Herbicidal N-triazolylmethyl-substituted alpha-haloacetanilide” (Chevron Research Company, priority 1978, dated 1981)

Key:
Type in all cases: in vivo
[1] = tested on: Watergrass (Echinochloa); test: Pre-Emergent Test, herbicidal effectiveness; details: pre-emergence, 504 h, 33 micrograms per cm^2, 3 weeks, 0-to-100 scale, read-out: Herbicidal Effectiveness, % Control Pre, W
Protocol: (§1) An acetone solution of the test compound was prepared by mixing 750 mg of the compound, 220 mg of a nonionic surfactant and 25 ml of acetone. This solution was added to approximately 125 ml of water containing 156 mg of surfactant.
(§2) Seeds of the test vegetation were planted in a pot of soil and the test solution was sprayed uniformly onto the soil surface at a dose of 33 micrograms/cm^2. The pot was watered and placed in a greenhouse. […] At the end of this period, the herbicidal effectiveness of the compound was rated based on the physiological observations. A 0-to-100 scale was used, 0 representing no phytotoxicity, 100 representing complete kill.

[2] = tested on: Wild Oats (Avena fatua); test: Pre-Emergent Test, herbicidal effectiveness; details: pre-emergence, 504 h, 33 micrograms per cm^2, 3 weeks, 0-to-100 scale, read-out: Herbicidal Effectiveness, % Control Pre, O
Protocol: as §1, §2

[3] = tested on: Mustard (Brassica arvensis); test: Pre-Emergent Test, herbicidal effectiveness; details: pre-emergence, 504 h, 33 micrograms per cm^2, 3 weeks, 0-to-100 scale
Protocol: as §1, §2

[4] = tested on: Pigweed (Amaranthus retroflexus); test: Pre-Emergent Test, herbicidal effectiveness; details: pre-emergence, 504 h, 33 micrograms per cm^2, 3 weeks, 0-to-100 scale, read-out: Herbicidal Effectiveness, % Control Pre, P
Protocol: as §1, §2

[5] = tested on: Lambsquarter (Chenopodium album); test: Pre-Emergent Test, herbicidal effectiveness; details: pre-emergence, 504 h, 33 micrograms per cm^2, 3 weeks, 0-to-100 scale, read-out: Herbicidal Effectiveness, % Control Pre, L
Protocol: as §1, §2

[6] = tested on: Crabgrass (Digitaria sanguinalis); test: Pre-Emergent Test, herbicidal effectiveness; details: pre-emergence, 504 h, 33 micrograms per cm^2, 3 weeks, 0-to-100 scale, read-out: Herbicidal Effectiveness, % Control Pre, C
Protocol: as §1, §2

[7] = tested on: Watergrass (Echinochloa); test: Post-Emergent Test, herbicidal effectiveness; details: post-emergence, 504 h, 33 micrograms per cm^2, 3 weeks, 0-to-100 scale, read-out: Herbicidal Effectiveness, % Control Post, W
[8] = tested on: Wild Oats (Avena fatua); test: Post-Emergent Test, herbicidal effectiveness; details: post-emergence, 504 h, 33 micrograms per cm^2, 3 weeks, 0-to-100 scale, read-out: Herbicidal Effectiveness, % Control Post, O
[9] = tested on: Mustard (Brassica arvensis); test: Post-Emergent Test, herbicidal effectiveness; details: post-emergence, 504 h, 33 micrograms per cm^2, 3 weeks, 0-to-100 scale
[10] = tested on: Pigweed (Amaranthus retroflexus); test: Post-Emergent Test, herbicidal effectiveness; details: post-emergence, 504 h, 33 micrograms per cm^2, 3 weeks, 0-to-100 scale, read-out: Herbicidal Effectiveness, % Control Post, P
[11] = tested on: Lambsquarter (Chenopodium album); test: Post-Emergent Test, herbicidal effectiveness; details: post-emergence, 504 h, 33 micrograms per cm^2, 3 weeks, 0-to-100 scale, read-out: Herbicidal Effectiveness, % Control Post, L
[12] = tested on: Crabgrass (Digitaria sanguinalis); test: Post-Emergent Test, herbicidal effectiveness; details: post-emergence, 504 h, 33 micrograms per cm^2, 3 weeks, 0-to-100 scale, read-out: Herbicidal Effectiveness, % Control Post, C

Structure (SMILES)	pest or weed control at 33 µg/cm2 [1]	pest or weed control at 33 µg/cm2 [2]	pest or weed control at 33 µg/cm2 [3]	pest or weed control at 33 µg/cm2 [4]	pest or weed control at 33 µg/cm2 [5]	pest or weed control at 33 µg/cm2 [6]	pest or weed control at 5000 µg/mL, 33 µg/cm2 [7]	pest or weed control at 5000 µg/mL, 33 µg/cm2 [8]	pest or weed control at 5000 µg/mL, 33 µg/cm2 [9]	pest or weed control at 5000 µg/mL, 33 µg/cm2 [10]	pest or weed control at 5000 µg/mL, 33 µg/cm2 [11]	pest or weed control at 5000 µg/mL, 33 µg/cm2 [12]
Cc1cccc(C)c1NCc1nnc[nH]1 [Compound 9A]	0%	0%	0%	0%	0%	0%	0%	0%	0%	0%	0%	0%
CCc1cccc(CC)c1NCc1nnc(C)[nH]1 [Compound 5A]	0%	0%	0%	0%	0%	0%	0%	0%	0%	0%	0%	0%
Cc1nnc(CN(C(=O)CCl)c2c(C)cccc2C)[nH]1 [Compound 2B, N-(5-methyl-1,2,4-triazol-3-ylmethyl)-2,6-dimethyl-alpha-chloroacetanilide]	100%	100%	75%	88%	98%	100%	75%	30%	25%	32%	50%	20%
CCc1cccc(C)c1N(Cc1nnc(C)o1)C(=O)CCl [Compound 4]	100%	93%	10%	65%	10%	100%	60%	50%	0%	0%	0%	20%
CCc1nnc(CNc2c(C)cccc2CC)[nH]1 [Compound 15A]	0%	0%	0%	0%	0%	0%	0%	0%	0%	0%	0%	0%
Cc1cccc(C)c1N(Cc1nnc(S)[nH]1)C(=O)CCl [Compound 18B]	0%	0%	0%	0%	0%	0%	0%	0%	0%	0%	0%	0%
